In patent US11077100B2, “Tetrahydroquinoline derivatives as P2X7 receptor antagonists” (RaQualia Pharma Inc., priority 2017, dated 2021):

Experiments:
rat P2X7 = rat P2X7 (Rattus norvegicus (Rat), UniProt Q64663); assay: Rat P2X7 functional assay (Ca2+ influx, Fluo-4, FDSS); assay type: cell-based; settings: HEK293 cells stably expressing rat P2X7; BzATP final 10 microM; 7-point dose-response; read-out: Antagonistic activities with respect to the rat P2X7 receptor (IC50)
Protocol: Rat P2X7 Functional Assay
The functional activity of compounds was determined by measuring changes in intracellular calcium concentration using a Ca^2+-sensitive fluorescent dye, Fluo-4 (Molecular Probes). The changes in fluorescent signal were monitored by the cell imaging technology by Hamamatsu Photonics's Functional Drug Screening System (FDSS). Increases in intracellular Ca^2+ concentration were readily detected upon activation with BzATP.
HEK293 cells stably expressing rat P2X7 (GenBank accession number NM_019256) were grown in Corning CellBIND cell culture flasks, in a 5% CO2 humidified incubator to about 80% confluence. Media composition consisted of Dulbecco's Modified Eagle Medium (high glucose), 10% fetal bovine serum ([…]), 100 units/[…] Penicillin, 100 microg/mL Streptomycin and 250 microg/mL Geneticine.
1. […] Plate-out HEK293-rat P2X7 cells (40 microL medium containing 5,000 cells per well) into poly-D-lysine coated 384-well plates (BD Falcon) at 24 h prior to assay.
2. Incubate at 37° C. in 5% CO2.
3. Incubate the plate at 37° C. in 5% CO2 for 1 h.
5. Test compounds were prepared at 100× the test concentration in DMSO by serial dilution with Biomek-FX liquid handling instrument. 33× diluted compound solutions in assay buffer were prepared in intermediate compound plate with Biomek-NX liquid handling instrument. A further 3× dilution occurred in below steps 6 and 7.
6. Add 20 microL of 33× diluted compound solutions into each well and leave the plate for 10 min under the dark at room temperature.
7. Measure activity by FDSS as follows: • Set the assay plate on the stacker of FDSS. • Start the detection of fluorescence intensity at 540 nm by 480 nm exicitation. • After 30 seconds, add 20 microL of assay buffer containing 30 microM BzATP (final 10 microM).
IC50 values for compounds of the present invention were determined from 7-point dose-response studies. Curves were generated using the average of duplicate wells for each data point. Finally, the IC50 values are calculated with the best-fit dose curve determined by XLfit (ID Business Solutions Ltd.).

human P2X7 = human P2X7 (Homo sapiens (Human), UniProt Q99572); assay: Human P2X7 functional assay (Ca2+ influx, Fluo-4, FDSS); assay type: cell-based; settings: antagonistic activity with respect to the human P2X7 receptor; BzATP final concentration 80 microM
Procedure, shortened: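 Ca2+ influx was triggered with BzATP (80 μM final) after a 10-min room-temperature compound preincubation and monitored with Fluo-4 (ex 480/em 540 nm) on FDSS. The cells were HEK293 stably carrying FLAG-tagged human P2X7. Duplicate-averaged 7-point dose-responses gave IC50s.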

Sequence of rat P2X7 (Q64663 whole entry): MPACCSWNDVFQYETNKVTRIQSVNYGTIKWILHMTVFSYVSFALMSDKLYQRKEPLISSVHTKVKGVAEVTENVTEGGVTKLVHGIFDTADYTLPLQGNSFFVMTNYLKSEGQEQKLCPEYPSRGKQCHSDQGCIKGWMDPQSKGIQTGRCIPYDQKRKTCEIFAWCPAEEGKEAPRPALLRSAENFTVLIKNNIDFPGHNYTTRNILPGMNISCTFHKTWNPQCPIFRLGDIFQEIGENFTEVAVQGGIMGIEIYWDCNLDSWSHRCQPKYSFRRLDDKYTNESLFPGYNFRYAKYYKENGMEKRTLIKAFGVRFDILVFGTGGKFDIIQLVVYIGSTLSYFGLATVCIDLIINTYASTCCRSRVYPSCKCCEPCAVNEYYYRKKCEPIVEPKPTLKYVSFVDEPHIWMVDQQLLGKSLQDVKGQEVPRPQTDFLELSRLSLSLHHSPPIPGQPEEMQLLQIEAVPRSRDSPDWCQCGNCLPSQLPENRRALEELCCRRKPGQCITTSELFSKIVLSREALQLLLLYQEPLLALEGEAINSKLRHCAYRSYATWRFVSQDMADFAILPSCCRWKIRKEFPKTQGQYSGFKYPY
Sequence of human P2X7 (Q99572 whole entry): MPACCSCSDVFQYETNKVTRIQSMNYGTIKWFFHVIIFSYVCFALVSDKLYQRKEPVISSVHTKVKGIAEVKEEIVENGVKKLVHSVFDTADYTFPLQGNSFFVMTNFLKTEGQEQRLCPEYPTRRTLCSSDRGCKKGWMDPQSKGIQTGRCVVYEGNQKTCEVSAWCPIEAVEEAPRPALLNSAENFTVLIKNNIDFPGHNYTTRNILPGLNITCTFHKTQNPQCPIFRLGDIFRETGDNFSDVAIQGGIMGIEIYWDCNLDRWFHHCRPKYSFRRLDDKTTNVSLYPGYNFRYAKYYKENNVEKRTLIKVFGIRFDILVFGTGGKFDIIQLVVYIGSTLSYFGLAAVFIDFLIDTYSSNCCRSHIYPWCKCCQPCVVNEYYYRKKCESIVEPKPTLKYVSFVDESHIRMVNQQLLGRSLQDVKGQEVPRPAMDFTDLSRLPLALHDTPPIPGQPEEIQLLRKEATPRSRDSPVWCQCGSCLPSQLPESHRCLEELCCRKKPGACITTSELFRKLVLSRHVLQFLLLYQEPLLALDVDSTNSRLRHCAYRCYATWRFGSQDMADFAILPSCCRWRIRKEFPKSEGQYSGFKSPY

Structure (SMILES) | IC50 (rat P2X7) [nM] | IC50 (human P2X7) [nM]
Cc1cccc(Cl)c1CNC(=O)[C@]1(F)CC[C@@H](O)c2ncccc21 [Example 122, (5S,8R)-N-(2-chloro-6-methylbenzyl)-5-fluoro-8-hydroxy-5,6,7,8,- tetrahydroquinoline-5-carboxamide] | < 1000 | 50 to 100
CO[C@H]1CC[C@](F)(C(=O)NCc2c(Cl)cc(Cl)cc2CO)c2cccnc21 [Example 333, (5R,8S)-N-(2,4-dichloro-6-(hydroxymethyl)benzyl)-5-fluoro-8-methoxy-5,6,7,8-tetrahydroquinoline-5-carboxamide] | < 1000 | 101 to 300
O=C(NCc1c(F)cc(Cl)cc1F)[C@]1(F)CC[C@@](O)(CO)c2ncccc21 [Example 324, (5S,8S)-N-(4-chloro-2,6-difluorobenzyl)-5-fluoro-8-hydroxy-8-(hydroxymethyl)-5,6,7,8-tetrahydroquinoline-5-carboxamide] | < 1000 | 50 to 100
N#CC[C@]1(O)CC[C@@](F)(C(=O)NCc2ccc(F)cc2Cl)c2cccnc21 [Example 281, (5S,8R)-N-(2-chloro-4-fluorobenzyl)-8-(cyanomethyl)-5-fluoro-8-hydroxy-5,6,7,8-tetrahydroquinoline-5-carboxamide] | < 1000 | 301 to 1000
Cc1cc(Cl)cc(Cl)c1CNC(=O)C1CCC(O)c2ncccc21 (stereo not shown) [Example 6, N-(2,4-dichloro-6-methyl-benzyl)-8-hydroxy-5,6,7,8-tetrahydroquinoline-5-carboxamide] | < 1000 | < 50
O=C(NCc1ccc(F)c(F)c1F)[C@]1(F)CC[C@@H](O)c2ncccc21 [Example 108, (5S,8R)-5-fluoro-8-hydroxy-N-(2,3,4-trifluorobenzyl)-5,6,7,8-tetrahydroquinoline-5-carboxamide] | < 1000 | 301 to 1000
COC1CN(C[C@]2(O)CC[C@@](F)(C(=O)NCc3ccc(F)cc3Cl)c3cccnc32)C1 (relative stereo) [Example 53, (5S*,8R*)-N-(2-chloro-4-fluorobenzyl)-5-fluoro-8-hydroxy-8-((3-methoxy-azetidin-1-yl)methyl)-5,6,7,8-tetrahydro-quinoline-5-carboxamide] | < 1000 | < 50
O=C(NCc1ccc(Cl)cc1Cl)[C@]1(F)CC[C@H](O)c2c1ccc[n+]2[O-] [Example 245, (5S,8S)-5-((2,4-dichlorobenzyl)carbamoyl)-5-fluoro-8-hydroxy-5,6,7,8-tetrahydroquinoline 1-oxide] | < 1000 | < 50
O=C(NCc1ccc(F)cc1Cl)[C@]1(F)CC[C@](O)(CO)c2ncccc21 [Example 307, (5S,8R)-N-(2-chloro-4-fluorobenzyl)-5-fluoro-8-hydroxy-8-(hydroxymethyl)-5,6,7,8-tetrahydroquinoline-5-carboxamide] | < 1000 | 301 to 1000
O=C1NC[C@]2(CC[C@@](F)(C(=O)NCc3ccc(Cl)cc3Cl)c3cccnc32)O1 [Example 291, (5S,5′S)-N-(2,4-dichlorobenzyl)-5′-fluoro-2-oxo-6′,7′-dihydro-5′H-spiro [oxazolidine-5,8′-quinoline]-5′-carboxamide] | < 1000 | 101 to 300
O=C(NCc1ccc(Cl)cc1Cl)[C@]1(F)CC[C@@](O)(CF)c2ncccc21 [Example 285, (5S,8S)-N-(2,4-dichlorobenzyl)-5-fluoro-8-(fluoromethyl)-8-hydroxy-5,6,7,8-tetrahydroquinoline-5-carboxamide] | < 1000 | < 50
O=C(NCc1cc(F)cc(F)c1)[C@]1(F)CC[C@H](O)c2ncccc21 [Example 221, (5S,8S)-N-(3,5-difluorobenzyl)-5-fluoro-8-hydroxy-5,6,7,8-tetrahydroquinoline-5-carboxamide] | < 1000 | 301 to 1000
C[S+]([O-])C[C@]1(O)CC[C@@](F)(C(=O)NCc2ccc(F)cc2Cl)c2cccnc21 (stereo partly drawn) [Example 296, (5S,8S)-N-(2-chloro-4-fluorobenzyl)-5-fluoro-hydroxy-8-((methylsulfinyl)methyl)-5,6,7,8-tetrahydroquinoline-5-carboxamide] | < 1000 | 50 to 100
O=C1CC[C@@](F)(C(=O)NCc2c(F)cc(Cl)cc2Cl)c2cccnc21 [Example 251, (S)-N-(2,4-dichloro-6-fluorobenzyl)-5-fluoro-8-oxo-5,6,7,8-tetrahydro-quinoline-5-carboxamide] | < 1000 | < 50
O=C(NCc1c(F)ccc(F)c1Cl)[C@]1(F)CC[C@H](O)c2ncccc21 [Example 170, (5S,8S)-N-(2-chloro-3,6-difluorobenzyl)-5-fluoro-8-hydroxy-5,6,7,8-tetrahydroquinoline-5-carboxamide] | < 1000 | < 50
O=C1CO[C@]2(CC[C@@](F)(C(=O)NCc3ccc(Cl)cc3Cl)c3cccnc32)CN1 [Example 295, (2R,5′S)-N-(2,4-dichlorobenzyl)-5′-fluoro-5-oxo-6′,7′-dihydro-5′H-spiro [morpholine-2,8′-quinoline]-5′-carboxamide] | < 1000 | < 50
Cc1ccc(CNC(=O)[C@]2(F)CC[C@H](O)c3ncccc32)c(Cl)c1 [Example 167, (5S,8S)-N-(2-chloro-4-methylbenzyl)-5-fluoro-8-hydroxy-5,6,7,8-tetrahydroquinoline-5-carboxamide] | < 1000 | < 50
O=C1CC[C@@](F)(C(=O)NCc2ccc(Cl)cc2Cl)c2cccnc21 [Example 248, (S)-N-(2,4-dichloro-benzyl)-5-fluoro-8-oxo-5,6,7,8-tetrahydroquinoline-5-carboxamide] | < 1000 | < 50
O=C(NCc1ccc(Cl)cc1Cl)[C@]1(F)CC[C@H](O)c2ncccc21 [Example 133, (5S,8S)—N-(2,4-dichlorobenzyl)-5-fluoro-8-hydroxy-5,6,7,8-tetrahydroquinoline-5-carb oxamide] | < 1000 | < 50
Cc1cc(Cl)cc(Cl)c1CNC(=O)C1(F)CCC(=O)c2ncccc21 (stereo not shown) [Example 12, N-(2,4-dichloro-6-methylbenzyl)-5-fluoro-8-oxo-5,6,7,8-tetrahydroquinoline-5-carboxamide] | < 1000 | < 50
C[C@@H](NC(=O)[C@]1(F)CC[C@](O)(CO)c2ncccc21)c1ccc(F)cc1Cl [Example 328, (5S,8R)-N-((R)-1-(2-chloro-4-fluorophenyl)ethyl)-5-fluoro-8-hydroxy-8-(hydroxymethyl)-5,6,7,8-tetrahydroquinoline-5-carboxamide] | < 1000 | 101 to 300
O=C(NCc1ccc(Cl)cc1F)[C@]1(F)CC[C@@](O)(CO)c2ncccc21 [Example 314, (5S,8S)-N-(4-chloro-2-fluorobenzyl)-5-fluoro-8-hydroxy-8-(hydroxymethyl)-5,6,7,8-tetrahydroquinoline-5-carboxamide] | < 1000 | 101 to 300
O=C(NCc1cccc(C(F)(F)F)c1Cl)[C@@]1(F)CC[C@H](F)c2ncccc21 [Example 352, (5R,8S)-N-(2-chloro-3-(trifluoromethyl)benzyl)-5,8-difluoro-5,6,7,8-tetrahydroquinoline-5-carboxamide] | < 1000 | < 50
Cc1cc(Cl)cc(Cl)c1CNC(=O)C1CCC(O)(CO)c2ncccc21 (stereo not shown) [Example 33, N-(2,4-dichloro-6-methylbenzyl)-8-hy-droxy-8-(hydroxymethyl)-5,6,7,8-tetra-hydroxuqinoline-5-carboxamide] | < 1000 | < 50
O=C(NCc1c(Cl)cc(F)cc1CO)[C@]1(F)CC[C@@](O)(CO)c2ncccc21 [Example 317, (5S,8S)-N-(2-chloro-4-fluoro-6-(hydroxymethyl)benzyl)-5-fluoro-8-hydroxy-8-(hydroxymethyl)-5,6,7,8-tetrahydroquinoline-5-carboxamide] | < 1000 | < 50
O=C1CCC(F)(C(=O)NCc2cccc(C(F)(F)F)c2Cl)c2cccnc21 (stereo not shown) [Example 13, N-(2-chloro-3-(trifluoromethyl)benzyl)-5-fluoro-8-oxo-5,6,7,8-tetrahydro-quinoline-5-carboxamide] | < 1000 | < 50
